Results: publication PMC10269165 (Antimicrobial Agents and Chemotherapy, 2023)

Tested on: MDR isolate of H. contortus, exsheathed L3 larvae
Test: Larval motility assay (LMA), Worminator
Type: cell-based, Haemonchus contortus
Text: The H. contortus isolates used were TxPh-2011-S (Texas A&M University, USA) and UGA MDR 2020 (University of Georgia Athens, USA). TxPh-2011-S (Texas A&M University, USA) was originally isolated from Pronghorn antelope in West Texas in 2011 and is fully drug susceptible, phenotypically determined by the DrenchRite larval development assay (LDA; Microbial Screening Technologies, Kemps Creek, Australia). To establish this as a laboratory isolate, it was initially passaged in goats at Texas A&M University and then at The University of Georgia using both goats and sheep, and it is currently maintained in lambs at Louisiana State University. A nemabiome assay ([69]) was conducted at the University of Calgary to confirm that the isolate is 100% H. contortus. The UGA MDR 2020 (University of Georgia Athens, USA) isolate is resistant to ivermectin, benzimidazoles, levamisole, and moxidectin, as determined by the DrenchRite LDA. To establish this as a laboratory isolate, feces collected from a sheep farm in Georgia with known history of multiple anthelmintic resistance were cultured. Two donor goats were infected with the larvae recovered, which were morphologically ([70]) identified as 89% H. contortus. A fecal egg count reduction test (FECRT) was then performed in the infected goats. First, a combination treatment with albendazole at 15 mg/kg and ivermectin at 0.4 mg/kg was performed, followed by a treatment with levamisole at 12 mg/kg. Later, and to confirm resistance to moxidectin, another treatment was administered using a dose of 0.4 mg/kg of moxidectin. Posttreatment feces were recovered, coprocultures were established, and L3 larvae were identified as 100% H. contortus. Resistance to all drugs was subsequently confirmed using a DrenchRite assay.
For LMAs, the first phase testing using compounds NSC133100 and NSC177383 was done using the Worminator system in parallel with the LDA. Initial stock solutions of 12.5 mM were prepared for each compound using 100% DMSO as a solvent. Initial stock solutions (25 μL) were then diluted in 475 μL of culture media to yield working stock solutions of 625.00, 156.30, 39.10, 9.80, 2.40, 0.60, 0.20, 0.04, and 0.00 μM in 5% DMSO for each drug. In plate, 200 μL of working stock solutions were then diluted in 800 μL of culture media, yielding concentrations of 125.00, 31.25, 7.81, 1.95, 0.49, 0.12, and 0.00 μM in 1% DMSO. For the second phase of testing, compounds showing anthelmintic activity with the LDA were tested in a second round at higher concentrations than in the first phase of testing. Initial stocks of 50 mM were prepared for compounds NSC133100, NSC177383, NSC145612, and NSC56410 using 100% DMSO as a solvent. Initial stock solutions (25-μL portions) were then diluted in 475 μL of culture media consisting of 65% Lauria-Bertani (LB) (Thermo Fisher Scientific, Branchburg, NJ), 25% NCTC (Sigma-Aldrich), 10% fetal bovine serum (Atlanta Biologicals, Flowery Branch, GA), Pen/Strep (Sigma-Aldrich) at a final concentration of […], and amphotericin B (Sigma-Aldrich) at a final concentration of […]. The working stock solutions yielded concentrations of 2,500.00, 625.00, 156.30, 39.10, 9.80, 2.40, and 0.00 μM in 5% DMSO for each compound. In each well in the plate, 200 μL of working stock solutions were then diluted in 800 μL of culture media, yielding final concentrations of 500.00, 125.00, 31.30, 7.81, 1.95, 0.49, and 0.00 μM in 1% DMSO.
For the motility assays, 24-well plates with inserts were used (Costar, catalog no. 3379; Corning, Inc., Corning, NY). Portions (640 μL) of culture media were added to each well, and approximately 50 exsheathed larvae contained in 160 μL of culture media in each insert. Once pretreatment readings were taken, 160 μL of the drug solution was added to the well, and another 40 μL was added to the insert, reaching the final concentrations described in the protocol above. All concentrations were tested in triplicate. […]

Structure (SMILES) | Percent inhibition of larval motility (15.625 µM, 1 hour) [%] | Percent inhibition of larval motility (15.625 µM, 4 hours) [%] | Percent inhibition of larval motility (15.625 µM, 24 hours) [%] | Percent inhibition of larval motility (15.625 µM, 48 hours) [%] | Percent inhibition of larval motility (15.625 µM, 72 hours) [%] | Percent inhibition of larval motility (15.625 µM, 96 hours) [%] | Percent inhibition of larval motility (15.625 µM, Initial) [%] | Percent inhibition of larval motility (31.25 µM, 1 hour) [%] | Percent inhibition of larval motility (31.25 µM, 4 hours) [%] | Percent inhibition of larval motility (31.25 µM, 24 hours) [%] | Percent inhibition of larval motility (31.25 µM, 48 hours) [%] | Percent inhibition of larval motility (31.25 µM, 72 hours) [%] | Percent inhibition of larval motility (31.25 µM, 96 hours) [%] | Percent inhibition of larval motility (31.25 µM, Initial) [%] | Percent inhibition of larval motility (62.5 µM, 4 hours) [%] | Percent inhibition of larval motility (62.5 µM, 24 hours) [%] | Percent inhibition of larval motility (62.5 µM, 48 hours) [%] | Percent inhibition of larval motility (125 µM, 1 hour) [%] | Percent inhibition of larval motility (125 µM, 4 hours) [%] | Percent inhibition of larval motility (125 µM, 24 hours) [%] | further results
CO[C@H]1/C=C/O[C@@]2(C)Oc3c(C)c(O)c4c(O)c(cc(O)c4c3C2=O)NC(=O)/C(C)=C\C=C\[C@H](C)[C@H](O)[C@@H](C)[C@@H](O)[C@@H](C)[C@H](OC(C)=O)[C@@H]1C [NSC133100] | 6.1 | 6.9 | -6.8 | -11.1 | -11.7 | -3.4 | -7.4 | 6.3 | 1.6 | 0.6 | 11.9 | 3.1 | 5.5 | -21.7 | -11.1 | -12.6 | -2.3 | 33.8 | 3.0 | -6.2 | Percent inhibition of larval motility (125 µM, 48 hours): 18.4%; Percent inhibition of larval motility (125 µM, 72 hours): 14.0%; Percent inhibition of larval motility (125 µM, 96 hours): 26.6%; Percent inhibition of larval motility (125 µM, Initial): -12.3%; Percent inhibition of larval motility (250 µM, 1 hour): 38.9%; Percent inhibition of larval motility (250 µM, 24 hours): -12.4%; Percent inhibition of larval motility (250 µM, 48 hours): 28.6%; Percent inhibition of larval motility (250 µM, 96 hours): 0.9%; Percent inhibition of larval motility (250 µM, Initial): -11.5%; Percent inhibition of larval motility (500 µM, 1 hour): 33.9%; Percent inhibition of larval motility (500 µM, 4 hours): -2.0%; Percent inhibition of larval motility (500 µM, 24 hours): -0.5%; Percent inhibition of larval motility (500 µM, 48 hours): 22.2%; Percent inhibition of larval motility (500 µM, 72 hours): 12.1%; Percent inhibition of larval motility (500 µM, 96 hours): 18.5%; Percent inhibition of larval motility (500 µM, Initial): 5.8%
CO[C@@H]1/C=C\O[C@]2(C)Oc3c(C)c(O)c4c(O)c(c(CN(C)C)c(O)c4c3C2=O)NC(=O)/C(C)=C\C=C[C@@H](C)[C@@H](O)[C@H](C)[C@@H](O)[C@H](C)[C@H](OC(C)=O)[C@@H]1C [NSC145612] | -10.3 | 7.3 | 7.0 | 8.1 | 23.0 | 17.4 | 20.3 | 20.1 | -11.2 | 27.2 | 21.9 | 43.2 | 3.9 | 21.0 | 32.0 | 10.4 | 14.1 | 31.7 | 34.3 | 15.7 | Percent inhibition of larval motility (125 µM, 48 hours): 8.1%; Percent inhibition of larval motility (125 µM, 72 hours): 3.0%; Percent inhibition of larval motility (125 µM, 96 hours): -6.9%; Percent inhibition of larval motility (125 µM, Initial): 21.6%; Percent inhibition of larval motility (250 µM, 1 hour): 13.0%; Percent inhibition of larval motility (250 µM, 24 hours): -8.6%; Percent inhibition of larval motility (250 µM, 48 hours): 13.8%; Percent inhibition of larval motility (250 µM, 96 hours): 12.8%; Percent inhibition of larval motility (250 µM, Initial): 25.9%; Percent inhibition of larval motility (500 µM, 1 hour): -19.2%; Percent inhibition of larval motility (500 µM, 4 hours): 0.4%; Percent inhibition of larval motility (500 µM, 24 hours): -12.0%; Percent inhibition of larval motility (500 µM, 48 hours): 14.1%; Percent inhibition of larval motility (500 µM, 72 hours): 9.6%; Percent inhibition of larval motility (500 µM, 96 hours): -5.1%; Percent inhibition of larval motility (500 µM, Initial): 9.3%
CO[C@@H]1/C=C/O[C@@]2(C)Oc3c(C)c(O)c4c(c3C2=O)C(=N[C@@H]2CC[C@@H](O)O[C@H]2C)C=C(NC(=O)/C(C)=C\C(=O)[C@@H]2C[C@@H]2[C@H](O)[C@@H](C)[C@@H](O)[C@@H](C)[C@H](OC(C)=O)[C@@H]1C)C4=O [NSC177383] | -22.8 | -24.6 | 15.6 | 3.0 | -5.8 | -22.4 | 19.9 | 2.3 | 5.2 | 13.8 | 41.2 | 25.5 | 17.1 | 23.2 | -28.6 | 23.5 | 26.0 | 26.8 | -34.1 | 20.5 | Percent inhibition of larval motility (125 µM, 48 hours): 31.1%; Percent inhibition of larval motility (125 µM, 72 hours): 4.1%; Percent inhibition of larval motility (125 µM, 96 hours): 5.7%; Percent inhibition of larval motility (125 µM, Initial): 22.5%; Percent inhibition of larval motility (250 µM, 1 hour): 28.8%; Percent inhibition of larval motility (250 µM, 24 hours): 30.2%; Percent inhibition of larval motility (250 µM, 48 hours): 44.8%; Percent inhibition of larval motility (250 µM, 96 hours): 31.2%; Percent inhibition of larval motility (250 µM, Initial): 43.9%; Percent inhibition of larval motility (500 µM, 1 hour): 27.1%; Percent inhibition of larval motility (500 µM, 4 hours): -12.9%; Percent inhibition of larval motility (500 µM, 24 hours): 26.6%; Percent inhibition of larval motility (500 µM, 48 hours): 49.1%; Percent inhibition of larval motility (500 µM, 72 hours): 32.3%; Percent inhibition of larval motility (500 µM, 96 hours): 21.4%; Percent inhibition of larval motility (500 µM, Initial): 36.4%
